Source: PubChem BioAssay AID248 (DTP/NCI, 2004)
Several values for one entry are separate records, joined by “and”; a condition that tells them apart may be missing. Equal values may be shown once. Toxic doses and inconclusive results are not listed. No stated cut-off is given here; in the data, active means T/C of 150% or more; inactive means T/C below 125%.

Tested on: L1210 leukemia ip in BDF1 mice, survival T/C
Experiment: NCI In Vivo Anticancer Drug Screen. Data for tumor model L1210 Leukemia (intraperitoneal) in B6D2F1 (BDF1) mice
Conditions: higher = longer survival
How it was run: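 Value reflects the ratio of survival in compound-treated mice to survival in vehicle-treated controls, with both groups carrying the same transplanted tumor.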

[1] = endpoint: mean survival time, dose: 100.0 mg/kg/injection, schedule: Q01DX001 (ip), vehicle: saline with Tween-80
[2] = endpoint: mean survival time, dose: 200.0 mg/kg/injection, schedule: Q01DX001 (ip), vehicle: saline with Tween-80
[3] = endpoint: mean survival time, dose: 100.0 mg/kg/injection, schedule: Q04DX003 (ip), vehicle: saline
[4] = endpoint: mean survival time, dose: 200.0 mg/kg/injection, schedule: Q04DX003 (ip), vehicle: saline
[5] = endpoint: mean survival time, dose: 100.0 mg/kg/injection, schedule: Q01DX009 (ip), vehicle: saline with Tween-80
[6] = endpoint: mean survival time, dose: 100.0 mg/kg/injection, schedule: Q04DX003 (ip), vehicle: saline with Tween-80
[7] = endpoint: mean survival time, dose: 200.0 mg/kg/injection, schedule: Q01DX009 (ip), vehicle: saline with Tween-80
[8] = endpoint: mean survival time, dose: 200.0 mg/kg/injection, schedule: Q04DX003 (ip), vehicle: saline with Tween-80
[9] = endpoint: mean survival time, dose: 400.0 mg/kg/injection, schedule: Q01DX009 (ip), vehicle: saline with Tween-80
[10] = endpoint: mean survival time, dose: 400.0 mg/kg/injection, schedule: Q04DX003 (ip), vehicle: saline with Tween-80
[11] = endpoint: mean survival time, dose: 12.5 mg/kg/injection, schedule: Q01DX009 (ip), vehicle: Klucel (hydroxypropylcellulose) (HPC)
[12] = endpoint: mean survival time, dose: 25.0 mg/kg/injection, schedule: Q01DX009 (ip), vehicle: Klucel (hydroxypropylcellulose) (HPC)
[13] = endpoint: mean survival time, dose: 50.0 mg/kg/injection, schedule: Q01DX009 (ip), vehicle: Klucel (hydroxypropylcellulose) (HPC)
[14] = endpoint: mean survival time, dose: 100.0 mg/kg/injection, schedule: Q01DX001 (ip), vehicle: saline
[15] = endpoint: mean survival time, dose: 100.0 mg/kg/injection, schedule: Q01DX009 (ip), vehicle: saline
[16] = endpoint: mean survival time, dose: 200.0 mg/kg/injection, schedule: Q01DX001 (ip), vehicle: saline
[17] = endpoint: mean survival time, dose: 400.0 mg/kg/injection, schedule: Q01DX001 (ip), vehicle: saline
[18] = endpoint: mean survival time, dose: 100.0 mg/kg/injection, schedule: Q01DX009 (ip), vehicle: Klucel (hydroxypropylcellulose) (HPC)
[19] = endpoint: mean survival time, dose: 100.0 mg/kg/injection, schedule: Q04DX003 (ip), vehicle: Klucel (hydroxypropylcellulose) (HPC)
[20] = endpoint: mean survival time, dose: 200.0 mg/kg/injection, schedule: Q01DX009 (ip), vehicle: Klucel (hydroxypropylcellulose) (HPC)
[21] = endpoint: mean survival time, dose: 200.0 mg/kg/injection, schedule: Q04DX003 (ip), vehicle: Klucel (hydroxypropylcellulose) (HPC)
[22] = endpoint: mean survival time, dose: 400.0 mg/kg/injection, schedule: Q04DX003 (ip), vehicle: Klucel (hydroxypropylcellulose) (HPC)
[23] = endpoint: mean survival time, dose: 400.0 mg/kg/injection, schedule: Q04DX003 (ip), vehicle: saline

Measured: T/C

CCOC(=O)Nc1cc2c(c(NC(=O)OCC)n1)N=C(CN(C)c1ccccc1)CN2
inactive: endpoint: mean survival time, dose: 12.5 mg/kg/injection, schedule: Q01DX009 (ip), vehicle: saline with Tween-80 100 % of control | endpoint: mean survival time, dose: 25.0 mg/kg/injection, schedule: Q01DX009 (ip), vehicle: saline with Tween-80 105 % of control | endpoint: mean survival time, dose: 50.0 mg/kg/injection, schedule: Q01DX009 (ip), vehicle: saline with Tween-80 114 % of control | endpoint: mean survival time, dose: 88.0 mg/kg/injection, schedule: Q01DX001 (ip), vehicle: saline with Tween-80 105 % of control | [1] 106 % of control | endpoint: mean survival time, dose: 133.0 mg/kg/injection, schedule: Q01DX001 (ip), vehicle: saline with Tween-80 97 % of control | [2] 113 % of control

COC1CCC2CC3C4Cc5cn[nH]c5C5OC1C2C54CCN3C (stereo not drawn)
inactive: [3] 95 % of control | [4] 86 % of control

Cc1ccc(Cl)cc1NC(=O)COc1ccc(Cl)cc1Cl
inactive: [5] 96 % of control | [6] 107 % of control | [7] 93 % of control | [8] 93 % of control | [9] 93 % of control | [10] 98 % of control

S=P(NCCNP(=S)(N1CC1)N1CC1)(N1CC1)N1CC1
inactive: endpoint: mean survival time, dose: 1.5 mg/kg/injection, schedule: Q01DX015 (ip), vehicle: saline 96 % of control | endpoint: mean survival time, dose: 3.0 mg/kg/injection, schedule: Q01DX015 (ip), vehicle: saline 98 % of control | endpoint: mean survival time, dose: 6.0 mg/kg/injection, schedule: Q01DX015 (ip), vehicle: saline 101 % of control | endpoint: mean survival time, dose: 12.0 mg/kg/injection, schedule: Q01DX009 (ip), vehicle: carboxymethylcellulose (CMC) 104 % of control | endpoint: mean survival time, dose: 12.0 mg/kg/injection, schedule: Q01DX015 (ip), vehicle: saline 102 % of control | [11] 108 % of control | endpoint: mean survival time, dose: 12.5 mg/kg/injection, schedule: Q01DX009 (ip), vehicle: saline 112 % of control | [12] 120 % of control | endpoint: mean survival time, dose: 25.0 mg/kg/injection, schedule: Q01DX009 (ip), vehicle: carboxymethylcellulose (CMC) 121 % of control | [13] 97 % of control | endpoint: mean survival time, dose: 50.0 mg/kg/injection, schedule: Q01DX009 (ip), vehicle: carboxymethylcellulose (CMC) 115 % of control | [14] 106 % of control | endpoint: mean survival time, dose: 100.0 mg/kg/injection, schedule: Q01DX009 (ip), vehicle: carboxymethylcellulose (CMC) 109 % of control | [15] 120 % of control | [16] 104 % of control | [17] 120 % of control

COc1ccccc1CN1CCCN(Cc2ccccc2OC)C1c1cc(I)cc(I)c1O
inactive: endpoint: mean survival time, dose: 100.0 mg/kg/injection, schedule: Q01DX001 (ip), vehicle: carboxymethylcellulose (CMC) 98 % of control | endpoint: mean survival time, dose: 200.0 mg/kg/injection, schedule: Q01DX001 (ip), vehicle: carboxymethylcellulose (CMC) 98 % of control | endpoint: mean survival time, dose: 400.0 mg/kg/injection, schedule: Q01DX001 (ip), vehicle: carboxymethylcellulose (CMC) 93 % of control

CCCc1cc(CN2CCCCC2)c(O)c(CN2CCCCC2)c1O
inactive: [14] 96 % of control | [16] 95 % of control | [17] 88 % of control

CC(C)OC(=O)CC#N
inactive: [14] 103 % of control | [16] 103 % of control | [17] 103 % of control

COc1cccc(Oc2c(O)c3ccc(OC)cc3oc2=O)c1
inactive: [14] 100 % of control | [16] 97 % of control | [17] 97 % of control

O=C(NC(=S)Nc1cc(Cl)ccc1Cl)c1ccc(Cl)cc1Cl
inactive: [1] 92 % of control | [5] 94 % of control and 97 % of control | endpoint: mean survival time, dose: 100.0 mg/kg/injection, schedule: Q04DX002 (ip), vehicle: saline with Tween-80 87 % of control and 90 % of control | [6] 97 % of control | [2] 94 % of control | [7] 93 % of control and 97 % of control | endpoint: mean survival time, dose: 200.0 mg/kg/injection, schedule: Q04DX002 (ip), vehicle: saline with Tween-80 97 % of control and 87 % of control | [8] 92 % of control | endpoint: mean survival time, dose: 400.0 mg/kg/injection, schedule: Q01DX001 (ip), vehicle: saline with Tween-80 94 % of control | [9] 103 % of control and 105 % of control | endpoint: mean survival time, dose: 400.0 mg/kg/injection, schedule: Q04DX002 (ip), vehicle: saline with Tween-80 93 % of control and 101 % of control | [10] 95 % of control

Cc1c(NC(=O)CCl)c(=O)n(-c2ccccc2)n1C
inactive: [18] 98 % of control | [19] 100 % of control | [20] 94 % of control | [21] 96 % of control | [22] 95 % of control

COc1ccc(C2c3cc4c(c(OC)c3CC3OCC(=O)C32)OCO4)cc1OC (stereo not drawn)
inactive: [11] 110 % of control | [12] 110 % of control | [13] 123 % of control | endpoint: mean survival time, dose: 50.0 mg/kg/injection, schedule: Q04DX003 (ip), vehicle: saline 110 % of control | endpoint: mean survival time, dose: 75.0 mg/kg/injection, schedule: Q01DX001 (ip), vehicle: Klucel (hydroxypropylcellulose) (HPC) 106 % of control | [18] 121 % of control | [3] 116 % of control | endpoint: mean survival time, dose: 150.0 mg/kg/injection, schedule: Q01DX001 (ip), vehicle: Klucel (hydroxypropylcellulose) (HPC) 112 % of control | [20] 101 % of control | [4] 116 % of control | endpoint: mean survival time, dose: 300.0 mg/kg/injection, schedule: Q01DX001 (ip), vehicle: Klucel (hydroxypropylcellulose) (HPC) 104 % of control | [23] 110 % of control | endpoint: mean survival time, dose: 600.0 mg/kg/injection, schedule: Q01DX001 (ip), vehicle: Klucel (hydroxypropylcellulose) (HPC) 115 % of control | endpoint: mean survival time, dose: 800.0 mg/kg/injection, schedule: Q04DX003 (ip), vehicle: saline 118 % of control | endpoint: mean survival time, dose: 1200.0 mg/kg/injection, schedule: Q01DX001 (ip), vehicle: Klucel (hydroxypropylcellulose) (HPC) 118 % of control | endpoint: median survival time, dose: 12.5 mg/kg/injection, schedule: Q01DX009 (ip), vehicle: Klucel (hydroxypropylcellulose) (HPC) 105 % of control | endpoint: median survival time, dose: 25.0 mg/kg/injection, schedule: Q01DX009 (ip), vehicle: Klucel (hydroxypropylcellulose) (HPC) 100 % of control | endpoint: median survival time, dose: 50.0 mg/kg/injection, schedule: Q01DX009 (ip), vehicle: Klucel (hydroxypropylcellulose) (HPC) 111 % of control | endpoint: median survival time, dose: 100.0 mg/kg/injection, schedule: Q01DX009 (ip), vehicle: Klucel (hydroxypropylcellulose) (HPC) 116 % of control

COC1=NS(=O)(=O)N=C(N(C)C)O1
inactive: endpoint: mean survival time, dose: 100.0 mg/kg/injection, schedule: Q01DX001 (ip), vehicle: Klucel (hydroxypropylcellulose) (HPC) 105 % of control | [19] 96 % of control | endpoint: mean survival time, dose: 200.0 mg/kg/injection, schedule: Q01DX001 (ip), vehicle: Klucel (hydroxypropylcellulose) (HPC) 105 % of control | [21] 96 % of control | endpoint: mean survival time, dose: 400.0 mg/kg/injection, schedule: Q01DX001 (ip), vehicle: Klucel (hydroxypropylcellulose) (HPC) 103 % of control | [22] 97 % of control

O=C(NCN1CCOCC1)Nc1ccc(Cl)cc1
inactive: endpoint: mean survival time, dose: 25.0 mg/kg/injection, schedule: Q01DX009 (ip), vehicle: gum acacia 100 % of control | endpoint: mean survival time, dose: 50.0 mg/kg/injection, schedule: Q01DX009 (ip), vehicle: gum acacia 91 % of control

C=CCOP1(=O)OCC2OC(n3cnc4c(N)ncnc43)C(O)C2O1 (stereo not drawn)
inactive: endpoint: mean survival time, dose: 50.0 mg/kg/injection, schedule: Q01DX009 (ip), vehicle: saline 98 % of control | endpoint: mean survival time, dose: 100.0 mg/kg/injection, schedule: Q01DX005 (ip), vehicle: saline 100 % of control | [15] 89 % of control | endpoint: mean survival time, dose: 200.0 mg/kg/injection, schedule: Q01DX005 (ip), vehicle: saline 92 % of control | endpoint: mean survival time, dose: 200.0 mg/kg/injection, schedule: Q01DX009 (ip), vehicle: saline 97 % of control

CCC(C)C(C)(CO)CO (stereo not drawn)
inactive: [5] 102 % of control | [3] 90 % of control | [7] 88 % of control | [4] 93 % of control | [9] 89 % of control | [23] 97 % of control
